The values that follow come from PMC7867085, “In Vitro and In Vivo Antitumor Activity of Indolo[2,3-b] Quinolines, Natural Product Analogs from Neocryptolepine Alkaloid” (Molecules, 2021).

Test [1] deals with EAC solid tumor. Kind of test: Histopathological examination of tumor sections (H and E). It is filed as in vivo, mice. Particulars: for tumor section histopathology (necrosis): EAC bearing mouse, H and E × 200, Figure 3; for tumor cell death (histopathology): EAC solid tumor, compared with other molecules. As to the method: Results of the treated group and that of the positive control group are illustrated in (Figure 3 and Figure 4). […] At the same time, the count of mitotic cells was less in the studied analogs 6a, 6b, 6c and 6d as measured up to that of the positive control group.
Each tumor or liver sample for each mouse was separated and kept in 10% formalin solution and dehydrated in a graded alcohol series. Each specimen was treated with xylene and then inserted in paraffin blocks. The specimen was cut into sections, the thickness of each section is five-micron, hematoxylin, and eosin (H and E) were added for staining. The stained liver specimen was used to assess the degree of degradation and necrosis using a reported scaling system; the scaling system use numbers from 0 to 3 to reflect necrosis severity. Starting from 0, which indicates no necrosis and moves to mild, moderate, and severe necrosis indicated by 1, 2, and 3, respectively. Mild and moderate stages are defined as focal and multifocal necrosis or degradation of hepatocytes, respectively, while severe is characterized by local immense, spread out necrosis or damaged liver cells. Tumor specimen stained with H and E were used to evaluate the severity and percentage of necrosis by the same previously mentioned scaling system.
H and E-stained slides of tumor specimens were used also used to calculate the H score as well as the mitosis counting and apoptotic tumor cell counting, ten arbitrarily chosen microscopic fields were used for each mitosis and apoptotic tumor cell counting, this was considered as examining at least 1000 tumor cells. High magnification (400×) was used for microscopic examination.

Test [2] deals with EAC-induced solid tumor. Kind of test: Antitumor activity: reduction in tumor volume of EAC-induced solid tumor. It is filed as in vivo, Swiss female albino mice. Particulars: day 12 (last day of treatment), 100 mg/kg SC daily for five consecutive days. As to the method:
The aim of this study is to characterize indoloquinoline analogs 6a–d curative ability and antineoplastic activity on solid-form of Ehrlich tumors. Tumor volume is a potential biomarker for Ehrlich tumor development. The induction of solid tumor in Swiss female mice performed by inserting 0.2 mL of EAC cells (2 × 10^6 cell/mL) subcutaneously (SC) between thighs of the lower limb. When the tumor volume reached 15–20 mm^3 (Seven days after tumor induction), the mice were randomly divided into 6 groups (n = 10), five groups were injected subcutaneously with thalidomide and indoloquinoline analogs 6a–d (100 mg/kg) daily for five consecutive days, the sixth group (positive control group) were given DMSO/saline (0.3/0.7). The 8th day is considered the zero days of treatment. The tumor volume was daily measured with a vernier caliper for four days stated from day eight.
Thalidomide and indoloquinoline derivatives 6a–d were tested for their antitumor effect; the test was done in vivo on mice-bearing solid tumors. The induction of solid tumor in Swiss female mice performed by inserting 0.2 mL of EAC cells (2 × 10^6 cell/mL) subcutaneously (SC) between thighs of the lower limb. Seven days after tumor induction, animals were divided into 6 groups (n = 10), five groups were injected subcutaneously with 100 mg/kg of tested compounds daily for 5 consecutive days, the sixth group (positive control group) were given 0.3 DMSO/0.7 H2O. On day twelve, after carrying out EAC cells, mice were sacrificed, dissected, and change in tumor mass was evaluated by measuring the developed tumor mass volume using the formula [45, 46]:Tumor volume (mm^3) = 0.52 × length × (width)^2.(1)

Test [3] deals with EAC cells. Kind of test: Flow cytometric analysis of cell cycle distribution of EAC cells from treated mice. In kind it is in vivo. As to conditions: EAC bearing mice, 100 mg/kg for 5 days; for Apoptotic Cells (sub-G1) / Non-Apoptotic Cells G0/G1 / Non-Apoptotic Cells G2/M / Non-Apoptotic Cells S: percentage of cells. The text has this: Flow cytometry is a technique that gives a clue to the mechanism by which cytotoxic agents affect the cell cycle by sorting and analyzing cells based on their content of DNA. Flow cytometry was used to further evaluate the effects of the indoloquinoline compounds modes-of-action to the cellular level, and we extended our studies on the cell cycle effects. To know whether cell cycle changes were aligned with the inhibition of cell growth, the cell cycle phase distribution was examined via flow cytometry. The cell cycle was analyzed in EAC-bearing mice treated with indoloquinoline analogs 6a, 6b, 6c and 6d (at a dose of 100 mg/kg for 5 constitutive days).
Flow cytometry was used to calculate the percentage of cells in each phase of the cell cycle in both positive control (exposed to 0.3% DMSO) and treated cells, results illustrated in (Table 10 and Figure 2). The influence of indoloquinoline derivatives on EAC cells indicated noticeable cell cycle specificity. In comparison with the positive control group, an appreciable change in the cell cycle occurred in giving the studied compounds. The sub-G1 population indicated apoptotic-associated chromatin degradation.
Fresh tumor tissue specimens from treated and untreated groups were transported to our laboratory in isotonic saline. The specimens were prepared following these steps: • The material was washed with isotone tris EDTA buffer. Then, the cell suspension was centrifuged at 1800 rpm for 10 min; the supernatant was then separated; • The cell is then fixed in ice-cold 96–100% ethanol (BDH) in approximately 1 mL for each sample; • Two milliliters of phosphate buffer solution (PBS) were used to wash the sample, which was recentrifuged at 1500 rpm for 5 min then the supernatant was thrown away; • Granules of the Tumor cells were put back into suspension using 200–500 µL of PBS. Into polystyrene tube, 100 µL of the suspension was transferred and then stained with 1.5 mL of propidium iodide. The tube is kept at 4 °C in a dark place for one hour; • The sample was run in the flow cytometer within 30 min after the addition of propidium iodide.
The flow cytometer was carried out with FACS caliber flow cytometer (Becton Dickinson, Sunnyvale, CA, USA) equipped with a compact air cocked low-power 15 m watt argon ion laser beam (488 nm). The average number of evaluated nuclei per specimen 20,000, and the number of nuclei scanned was 120 per second. DNA histogram derived from flow cytometry was obtained with a computer program for Dean and Jett’s mathematical analysis. Data analysis was conducted using DNA analysis program MPDFIT (Verity Software House, Inc. Box 247, Topsham, ME 04086 USA, version: 2.0, power Mac with 131,072 KB Registration No.: 42000960827-16193213 Date made: 16 September 1996). This software calculated the CV around the G0/G1 peak and the percentage of cells in each phase (G0/G1, S and G2/M) of the DNA cell cycle for each sample.
A general note: A flow cytometer gives signals particle by particle.

“Also recorded” adds a separate entry of the source.

Turning to `Cn1c2nc3ccccc3c-2c(Nc2ccc(Br)cc2F)c2ccccc21` [Compound 6a, N-(4-Bromo-2-fluorophenyl)-5-methyl-5H-indolo[2,3-b] Quinolin-11-amine], the “antimitotic effect (count of mitotic cells)” value in test [1] (EAC bearing mice, H and E) was “greatest antimitotic effect”. Besides, in test [1], the “tumor section histopathology (necrosis)” value is on record as “massive, coagulated necrosis (Ne) with minimal residual malignant cells”; the “tumor cell death (histopathology)” value was “supremely cell death percentage and apoptosis”. Further, the “reduction percentage in tumor volume” value in test [2] amounted to 90.58%. Besides, in test [3], the “increase of G0/G1 cell population relative to positive control” value came to 17.4%, the “increase of sub-G1 group as compared to control” value (from here on “increase of sub-G1 group”) is recorded as 106%, the “reduction of G2/M fraction relative to positive control” value was found to be 69.7% and the “reduction of S-phase fraction relative to positive control” value is “about 35.3%”. Further, in test [3], the “Apoptotic Cells (sub-G1)” value was determined as 3.23 ± 0.01, the “Non-Apoptotic Cells G0/G1” value worked out at 90.27 ± 6.35, the “Non-Apoptotic Cells G2/M” value was 4.61 ± 0.6 and the “Non-Apoptotic Cells S” value came out at 5.12 ± 0.36.
As to “5-Methyl-N-(4-methylpiperazin-1-yl)-5H-indolo[2,3-b] Quinolin-11-amine [Compound 6d]”, in test [1], the “tumor section histopathology (necrosis)” value is “massive geographic coagulative necrosis (Ne) surrounded by viable tumor cells”. The “reduction percentage in tumor volume” value in test [2] was 94.90%. Also, in test [3], the “increase of G2/M fraction relative to positive control” value is listed as 263.3%, the “increase of sub-G1 group” value came out at 975%, the “reduction of G0/G1 fraction relative to positive control” value worked out at 46% and the “reduction of S-phase fraction relative to positive control” value is on record as 56.6%. Also, in test [3], the “Apoptotic Cells (sub-G1)” value is on record as 16.88 ± 0.6, the “Non-Apoptotic Cells G0/G1” value is 41.30 ± 0.31, the “Non-Apoptotic Cells G2/M” value is given as 55.26 ± 0.06 and the “Non-Apoptotic Cells S” value was found to be 3.44 ± 0.27.
For the molecule “5(5-Methyl-5H-indolo[2,3-b] quinolin-11-ylamino) Pyrimidine-2,4(1H,3H)-dione [Compound 6c]”, in test [1], the “tumor section histopathology (necrosis)” value is on record as “massive area of coagulative necrosis (Ne) with viable tumor cells”. In test [2], the “reduction percentage in tumor volume” value was determined as 93.29%. In test [3], the “increase of G2/M fraction relative to positive control” value is around 269.5%, the “increase of cells in S-phase relative to positive control” value is reported as around 411.3%, the “increase of sub-G1 group” value amounted to 683% and the “reduction of G0/G1 fraction relative to positive control” value was “about 95.7%”. In addition, in test [3], the “Apoptotic Cells (sub-G1)” value came to 12.30 ± 0.15, the “Non-Apoptotic Cells G0/G1” value was determined as 3.30 ± 0.15, the “Non-Apoptotic Cells G2/M” value stood at 56.20 ± 0.1 and the “Non-Apoptotic Cells S” value is 40.50 ± 2.41.
Turning to `Cn1c2nc3ccccc3c-2c(NCCc2c[nH]c3ccccc23)c2ccccc21` [Compound 6b, N-(2-(1H-Indol-3-yl)ethyl)-5-methyl-5H-indolo[2,3-b] Quinolin-11-amine], in test [1], the “tumor section histopathology (necrosis)” value is recorded as “extensive necrosis (Ne) with minimal viable malignant cells”; the “tumor cell death (histopathology)” value was “supremely cell death percentage and apoptosis; also recorded: highest effect in tumor cell death without harming liver cells”. For the same molecule, the “reduction percentage in tumor volume” value in test [2] was 87.37%. Further, in test [3], the “increase of G0/G1 cell population relative to positive control” value amounted to 2%, the “increase of G2/M fraction relative to positive control” value amounted to 26.2%, the “increase of sub-G1 group” value was 1452% and the “reduction of S-phase fraction relative to positive control” value is listed as “about 70.3%”. For the same molecule, in test [3], the “Apoptotic Cells (sub-G1)” value was 24.36 ± 0.01, the “Non-Apoptotic Cells G0/G1” value came out at 78.44 ± 0.04, the “Non-Apoptotic Cells G2/M” value was found to be 19.21 ± 0.09 and the “Non-Apoptotic Cells S” value is given as 2.35 ± 0.13.
